From publication PMC7229206, “Split Intein-Mediated Protein Ligation for detecting protein-protein interactions and their inhibition” (Nature Communications, 2020)

Target: T1, EGFR (Homo sapiens, UniProt P00533)
T1 construct: EGFR-IN; with SHC1
Assay: SIMPL western blot of EGFR/SHC1 interaction in cells (indirect readout of EGFR kinase activity)
Type: cell-based

T1 sequence (P00533 25-1210): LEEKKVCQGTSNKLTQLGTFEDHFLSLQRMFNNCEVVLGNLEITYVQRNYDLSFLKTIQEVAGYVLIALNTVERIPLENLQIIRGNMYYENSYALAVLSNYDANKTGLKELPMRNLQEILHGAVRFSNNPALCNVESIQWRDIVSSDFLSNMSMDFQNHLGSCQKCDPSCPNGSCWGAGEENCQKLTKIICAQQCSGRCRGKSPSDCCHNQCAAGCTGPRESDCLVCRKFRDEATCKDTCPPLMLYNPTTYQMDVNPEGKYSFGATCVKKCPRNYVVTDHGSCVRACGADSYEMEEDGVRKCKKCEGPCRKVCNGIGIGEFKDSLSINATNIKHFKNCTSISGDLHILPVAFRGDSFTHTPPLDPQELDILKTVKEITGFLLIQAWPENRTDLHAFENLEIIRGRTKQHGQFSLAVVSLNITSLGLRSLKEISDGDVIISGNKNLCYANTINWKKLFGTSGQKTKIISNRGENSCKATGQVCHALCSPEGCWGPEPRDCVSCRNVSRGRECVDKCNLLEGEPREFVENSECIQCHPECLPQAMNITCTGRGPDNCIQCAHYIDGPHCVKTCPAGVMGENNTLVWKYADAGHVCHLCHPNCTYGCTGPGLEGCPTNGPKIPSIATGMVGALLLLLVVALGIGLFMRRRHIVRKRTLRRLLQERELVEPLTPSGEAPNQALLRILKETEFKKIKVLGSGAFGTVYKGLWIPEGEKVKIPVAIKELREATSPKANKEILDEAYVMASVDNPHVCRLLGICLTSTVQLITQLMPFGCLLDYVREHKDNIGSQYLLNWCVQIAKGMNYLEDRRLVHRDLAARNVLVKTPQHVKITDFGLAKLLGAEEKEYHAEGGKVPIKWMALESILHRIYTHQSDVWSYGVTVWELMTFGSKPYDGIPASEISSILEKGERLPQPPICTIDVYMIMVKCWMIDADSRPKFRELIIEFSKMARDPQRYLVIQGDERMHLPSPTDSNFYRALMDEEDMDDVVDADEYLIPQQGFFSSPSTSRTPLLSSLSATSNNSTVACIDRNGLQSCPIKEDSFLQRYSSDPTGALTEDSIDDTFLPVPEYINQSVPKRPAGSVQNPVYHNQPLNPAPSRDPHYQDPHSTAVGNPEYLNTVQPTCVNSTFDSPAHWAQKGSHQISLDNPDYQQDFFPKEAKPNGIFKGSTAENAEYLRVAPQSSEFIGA
T1 sequence (P29353 whole entry, further chain): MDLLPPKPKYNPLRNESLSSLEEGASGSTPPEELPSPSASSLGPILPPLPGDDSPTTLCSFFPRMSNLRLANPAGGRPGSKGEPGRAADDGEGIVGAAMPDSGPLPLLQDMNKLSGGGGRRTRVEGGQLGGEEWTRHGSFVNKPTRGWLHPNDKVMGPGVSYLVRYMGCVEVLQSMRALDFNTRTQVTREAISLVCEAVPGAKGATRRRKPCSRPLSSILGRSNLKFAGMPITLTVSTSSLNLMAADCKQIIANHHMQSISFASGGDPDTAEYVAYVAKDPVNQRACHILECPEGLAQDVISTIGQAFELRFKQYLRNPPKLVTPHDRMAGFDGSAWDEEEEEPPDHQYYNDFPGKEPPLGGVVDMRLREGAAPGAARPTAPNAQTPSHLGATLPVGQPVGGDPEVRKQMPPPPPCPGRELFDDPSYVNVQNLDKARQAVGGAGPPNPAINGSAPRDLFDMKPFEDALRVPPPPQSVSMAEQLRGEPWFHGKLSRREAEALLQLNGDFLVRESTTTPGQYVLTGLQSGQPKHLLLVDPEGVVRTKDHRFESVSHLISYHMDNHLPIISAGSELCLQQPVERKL

## COc1cc2ncnc(Nc3cccc(Cl)c3)c2cc1OC [AG1478]
  SIMPL western blot of EGFR/SHC1 interaction in cells (indirect readout of EGFR k): The spliced EGFR-SHC1 band observed by western blot diminished with increasing AG1478 concentration.
